Consider 22 molecules from US10358435B2, “Triazolyl pyrimidinone compounds as PDE2 inhibitors” (Merck Sharp & Dohme Corp., priority 2015, dated 2019).

Data set [1] concerns the target Rhesus PDE2A3 (Macaca mulatta, UniProt B3VTJ2). The data set can be described thus: IMAP fluorescence polarization assay, rhesus PDE2A3 lysate from transfected AD293 cells. The class given is biochemical, rhesus macaque. Particulars: FAM-labeled cAMP 50 nM, activator cGMP 1 uM; read-out: Rhesus PDE2 Ki. The method, then:
The activity of the compounds in accordance with the present invention as PDE2 inhibitors may be readily determined using a fluorescence polarization (FP) methodology (Huang, W., et al., J. Biomol Screen, 2002, 7: 215).
In a typical experiment the PDE2 inhibitory activity of the compounds of the present invention was determined in accordance with the following experimental method. Rhesus PDE2A3 was amplified from rhesus macaque brain cDNA (Biochain Institute, Hayward, Calif.) using primers based on human PDE2A sequence (accession NM_002599.3) where the forward primer containing a Kozak consensus was 5′-[…]-3′ and the reverse primer was 5′-[…]-3′. Amplification with Easy-A High-Fidelity PCR cloning enzyme (Stratagene, La Jolla, Calif.) was 95° C. for 2 minutes followed by thirty three cycles of 95° C. for 40 seconds, 52° C. for 30 seconds, and 72° C. for 2 minutes 48 seconds. Final extension was 72° C. for 7 minutes. The PCR product was TA cloned into pcDNA3.3-TOPO (Invitrogen, Carlsbad, Calif.) according to standard protocol. A consensus sequence was developed from multiple clones and then deposited into GenBank (EU812167). AD293 cells (Stratagene, La Jolla, Calif.) with 70-80% confluency were transiently transfected with rhesus PDE2A3/pcDNA3.3-TOPO using Lipofectamine 2000 according to manufacturer specifications (Invitrogen, Carlsbad, Calif.). Cells were harvested 48 hours post-transfection and lysed by sonication (setting 3, 10×5 sec pulses) in a buffer containing 20 mM HEPES pH 7.4, 1 mM EDTA and Complete Protease Inhibitor Cocktail Tablets (Roche, Indianapolis, Ind.). Lysate was collected by centrifugation at 75,000×g for 20 minutes at 4° C. and supernatant utilized for evaluation of PDE2 activity. The fluorescence polarization assay for cyclic nucleotide phosphodiesterases was performed using an IMAP® FP kit supplied by Molecular Devices, Sunnyvale, Calif. (product # R8139). […] Assays were performed at room temperature in 384-well microtiter plates with an incubation volume of 20.2 μL. Solutions of test compounds were prepared in DMSO and serially diluted with DMSO to yield 8 μL of each of 10 solutions differing by 3-fold in concentration, at 32 serial dilutions per plate. […] 0% of inhibition is determined by using DMSO (1% final concentrations).
A Labcyte Echo 555 (Labcyte, Sunnyvale, Calif.) is used to dispense 200 nL from each well of the titration plate to the 384 well assay plate. Ten microliters of a solution of enzyme (1/2000 final dilution from aliquots; sufficient to produce 20% substrate conversion) was added to the assay plate. Next 10 uL of a separate solution of the substrate FAM-labeled cAMP (50 nM final concentration product # R7506 from Molecular Devices) and the activator cGMP (1 uM final concentration), prepared in the assay buffer (10 mM Tris HCl, pH 7.2, 10 mM MgCl2, 0.05% NaN3 0.01% Tween-20, and 1 mM DTT) was added to the assay plate and shaken to mix. The reaction is allowed to proceed at room temperature for 60 minutes. A binding solution is then made from the kit components, comprised of 80% Solution A, 20% Solution B and binding reagent at a volume of 1/600 the total binding solution. The enzymatic reaction is stopped by addition of 60 μL of the binding solution to each well of the assay plates and the plates are sealed and shaken for 30 seconds. The plate was incubated at room temperature for at least one hour prior to determining the fluorescence polarization (FP). The parallel and perpendicular fluorescence of each well of the plate was measured using a Tecan Genios Pro plate reader (Tecan, Switzerland) or Perkin Elmer EnVision™ plate reader (Waltham, Mass.). Fluorescence polarization (mP) was calculated from the parallel (S) and perpendicular (P) fluorescence of each sample well and the analogous values for the median control well, containing only substrate (So and Po), using the following equation: Polarization (mP)=1000*(S/So−P/Po)/(S/So+P/Po).

Data set [2] concerns the target human PDE2A1 (Homo sapiens (Human), UniProt O00408). The data set can be described thus: IMAP fluorescence polarization assay, human PDE2A1 (PDE selectivity panel). The class given is biochemical. Particulars: for Ki: FAM cAMP 50 nM with 1000 nM cGMP. In a few lines: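 GST-tagged human PDE2A1 from insect cells; enzyme set to ~20% conversion of 50 nM FAM-cAMP with 1000 nM cGMP, 60 min at room temperature in pH 7.2 Tris/MgCl2/DTT buffer, ten 3-fold compound dilutions. IMAP FP read, apparent Ki derived using apparent KM 10,000 nM.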
For orientation: Polarisation of emitted light reports the rotation of a fluorescent probe.

The conditions of data set [3]: reported in Brandon et al. 2007; cited from earlier work.
The test system of data set [4] is other PDE isoforms. The following applies: reported in Brandon et al. 2007; cited from earlier work.

Rhesus PDE2A3, sequence (B3VTJ2 1-941): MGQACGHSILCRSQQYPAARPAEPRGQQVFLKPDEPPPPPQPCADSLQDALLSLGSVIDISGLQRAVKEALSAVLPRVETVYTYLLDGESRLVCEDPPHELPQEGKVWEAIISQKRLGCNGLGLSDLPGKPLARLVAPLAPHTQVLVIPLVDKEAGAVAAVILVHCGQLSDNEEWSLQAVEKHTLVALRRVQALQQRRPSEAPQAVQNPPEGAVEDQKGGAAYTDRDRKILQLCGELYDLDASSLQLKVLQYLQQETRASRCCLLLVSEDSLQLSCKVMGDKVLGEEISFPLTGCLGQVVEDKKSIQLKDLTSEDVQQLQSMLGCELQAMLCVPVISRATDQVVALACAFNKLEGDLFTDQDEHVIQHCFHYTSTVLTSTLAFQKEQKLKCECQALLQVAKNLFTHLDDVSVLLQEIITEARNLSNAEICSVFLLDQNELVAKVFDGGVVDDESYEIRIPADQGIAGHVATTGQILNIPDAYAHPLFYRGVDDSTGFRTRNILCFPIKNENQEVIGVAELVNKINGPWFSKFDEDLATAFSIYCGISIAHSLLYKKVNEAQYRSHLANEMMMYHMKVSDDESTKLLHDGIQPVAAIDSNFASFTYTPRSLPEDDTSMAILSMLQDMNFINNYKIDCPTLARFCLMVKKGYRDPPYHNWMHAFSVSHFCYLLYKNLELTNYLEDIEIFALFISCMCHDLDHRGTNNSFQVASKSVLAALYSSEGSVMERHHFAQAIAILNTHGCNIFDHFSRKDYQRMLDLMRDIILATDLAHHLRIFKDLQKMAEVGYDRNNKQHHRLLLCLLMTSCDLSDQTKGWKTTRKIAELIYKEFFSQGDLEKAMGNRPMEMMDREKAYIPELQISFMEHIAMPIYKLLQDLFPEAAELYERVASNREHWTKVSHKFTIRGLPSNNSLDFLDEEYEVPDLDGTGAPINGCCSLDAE
human PDE2A1, sequence (O00408 other isoform, or with tags, fused parts or gaps): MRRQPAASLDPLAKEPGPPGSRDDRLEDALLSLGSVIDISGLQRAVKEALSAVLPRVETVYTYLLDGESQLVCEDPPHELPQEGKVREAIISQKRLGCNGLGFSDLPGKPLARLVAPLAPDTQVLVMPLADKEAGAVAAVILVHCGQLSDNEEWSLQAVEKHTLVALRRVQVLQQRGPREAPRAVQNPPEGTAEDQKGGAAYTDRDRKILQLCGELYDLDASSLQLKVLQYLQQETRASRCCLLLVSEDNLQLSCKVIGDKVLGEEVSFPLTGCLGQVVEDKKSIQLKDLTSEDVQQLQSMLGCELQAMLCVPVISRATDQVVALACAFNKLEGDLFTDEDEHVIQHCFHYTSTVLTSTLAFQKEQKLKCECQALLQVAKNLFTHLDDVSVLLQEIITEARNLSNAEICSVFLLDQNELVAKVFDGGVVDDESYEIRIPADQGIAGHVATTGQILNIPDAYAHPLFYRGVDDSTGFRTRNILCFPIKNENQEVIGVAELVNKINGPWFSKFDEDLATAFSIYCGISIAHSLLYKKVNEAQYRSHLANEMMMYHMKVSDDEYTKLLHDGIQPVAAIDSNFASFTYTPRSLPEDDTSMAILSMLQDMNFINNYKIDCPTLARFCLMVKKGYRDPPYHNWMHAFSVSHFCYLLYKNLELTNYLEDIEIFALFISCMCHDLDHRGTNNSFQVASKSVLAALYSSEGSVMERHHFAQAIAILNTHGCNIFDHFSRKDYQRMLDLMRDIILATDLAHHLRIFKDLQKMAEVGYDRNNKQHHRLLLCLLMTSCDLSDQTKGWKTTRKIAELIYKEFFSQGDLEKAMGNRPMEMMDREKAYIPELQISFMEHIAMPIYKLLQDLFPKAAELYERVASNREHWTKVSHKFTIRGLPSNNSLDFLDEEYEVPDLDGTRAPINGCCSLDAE

Regarding `Cc1nc(-c2cn(C(C)c3ccc(OC(F)(F)F)cc3F)nn2)cc(=O)[nH]1` (centres unmarked) [Example 13, 6-(1-(1-(2-fluoro-4-(trifluoromethoxy)phenyl)ethyl)-1H-1,2,3-triazol-4-yl)-2-methylpyrimidin-4(3H)-one], the inhibition constant Ki (usually the equilibrium dissociation constant of an inhibitor or competing ligand from its target) worked out at 98.9 nM in data set [1] and 76.8 nM in data set [2].

Turning to `Cc1nc(-c2cn(C(C)c3ccc(S(F)(F)(F)(F)F)cc3)nn2)cc(=O)[nH]1` (centres unmarked) [Example 16, 2-methyl-6-(1-(1-(4-(pentafluorosulfanyl)phenyl)ethyl)-1H-1,2,3-triazol-4-yl)pyrimidin-4(3H)-one], the Ki was found to be 39.4 nM in data set [1] and 37.8 nM in data set [2].

On to `Cc1nc(-c2nnn3c2CCC3(C)c2ccc(C(F)(F)F)cc2F)cc(=O)[nH]1` (single isomer, unassigned) [Example 97, (R)- or (S)-6-(6-(2-Fluoro-4-(trifluoromethyl)phenyl)-6-methyl-5,6-dihydro-4H-pyrolo[1,2-c][1,2,3]triazol-3-yl)-2-methylpyrimidin-4(3H)-one], for which the figures for the inhibitory constant (Ki) in data set [1] and in data set [2] were 1.3 nM and 1.5 nM, respectively.

For the molecule `CCc1ccc(C(C)n2cc(-c3cc(=O)[nH]c(C)n3)nn2)c(Cl)c1` (single isomer, unassigned) [Example 19, (R)- or (S)-6-(1-(1-(2-chloro-4-ethylphenyl)ethyl)-1H-1,2,3-triazol-4-yl)-2-methylpyrimidin-4(3H)-one], the Ki is 3.4 nM in data set [1] and 2.1 nM in data set [2].

For the molecule `Cc1nc(-c2cn(C(C)c3ccc(OC(F)(F)F)cc3)nn2)cc(=O)[nH]1` (centres unmarked) [Example 11, 2-methyl-6-(1-(1-(4-(trifluoromethoxy)phenyl)ethyl)-1H-1,2,3-triazol-4-yl) pyrimidin-4(3H)-one], the inhibitory constant (Ki) in data set [1] worked out at 50.4 nM; in data set [2] it was 55.8 nM.

On to `Cc1nc(-c2cn(C(C)c3ccc(C(F)(F)F)cc3F)nn2)cc(=O)[nH]1` (single isomer, unassigned) [Example 28, (S)- or (R)-6-(1-(1-(2-fluoro-4-(trifluoromethyl)phenyl)ethyl)-1H-1,2,3-triazol-4-yl)-2-methylpyrimidin-4(3H)-one], for which the figures for the inhibitory constant (Ki) in data set [1] and in data set [2] were 9 nM and 7 nM, respectively.

For the molecule `COc1ccc(Cc2nn3c([C@@H](CCCc4ccccc4)[C@@H](C)O)nc(C)c3c(=O)[nH]2)cc1OC` [Bay 60-7550], the brain penetration entry in data set [3] was “limited brain penetration”. Besides, the “potency at other PDE isoforms” value in data set [4] is reported as “significant potency”.

`CCc1ccc(C(C)(C)n2cc(-c3cc(=O)[nH]c(C)n3)nn2)c(Cl)c1` [Example 32, 6-(1-(2-(2-chloro-4-ethylphenyl)propan-2-yl)-1H-1,2,3-triazol-4-yl)-2-methylpyrimidin-4(3H)-one]: the Ki in data set [1] was 2.1 nM; in data set [2], 1.6 nM.

Regarding `Cc1nc(-c2cn(C(C)c3ccc(C(F)(F)F)cc3)nn2)cc(=O)[nH]1` (single isomer, unassigned) [Example 17, (R)- or (S)-2-methyl-6-(1-(1-(4-(trifluoromethyl)phenyl)ethyl)-1H-1,2,3-triazol-4-yl) pyrimidin-4(3H)-one], the figures for the Ki in data set [1] and in data set [2] were 44.7 nM and 36.2 nM, respectively.

For `Cc1nc(-c2cn(C(C)c3ccc(C(F)(F)F)cc3)nn2)cc(=O)[nH]1` (single isomer, unassigned) [Example 18, (S)- or (R)-2-methyl-6-(1-(1-(4-(trifluoromethyl)phenyl)ethyl)-1H-1,2,3-triazol-4-yl) pyrimidin-4(3H)-one], the inhibition constant Ki in data set [1] turned out to be 54.8 nM; in data set [2], 47 nM.

In the case of `Cc1nc(-c2nnn3c2CCC[C@]3(C)c2ccc(C(F)(F)F)cc2Cl)cc(=O)[nH]1` (single isomer, unassigned) [Example 87], the inhibitory constant (Ki) in data set [1] was 1.8 nM; in data set [2], 1.2 nM.

`Cc1nc(-c2nnc(C(C)c3ccc(C(F)(F)F)cc3)[nH]2)cc(=O)[nH]1` (centres unmarked) [Example 60, 2-Methyl-6-(5-(1-(4-(trifluoromethyl)phenyl)ethyl)-4H-1,2,4-triazol-3-yl)pyrimidin-4(3H)-one]: the Ki in data set [1] worked out at 204 nM.

As for `COc1ccc(Cc2nc(-c3nnn4c3CCC[C@]4(C)c3ccc(C(F)(F)F)cc3F)cc(=O)[nH]2)cc1` (single isomer, unassigned) [Example 89], the Ki in data set [1] was determined as 0.63 nM; in data set [2] it was 0.4 nM.

Regarding `Cc1nc(-c2cn([C@H](C)c3ccc(C(F)(F)F)cc3C)nn2)cc(=O)[nH]1` (single isomer, unassigned) [Example 9], the Ki in data set [1] turned out to be 9.4 nM; in data set [2], 6.9 nM.

For `Cc1nc(-c2cn(C3(c4ccc(C(F)(F)F)cc4Cl)CCC3)nn2)cc(=O)[nH]1` [Example 29, 6-(1-(1-(2-Chloro-4-(trifluoromethyl)phenyl)cyclobutyl)-1H-1,2,3-triazol-4-yl)-2-methylpyrimidin-4(3H)-one], the inhibitory constant (Ki) is 0.63 nM in data set [1] and 0.53 nM in data set [2].

`Cc1nc(-c2nnc3n2CCC[C@]3(C)c2ccc(C(F)(F)F)cc2F)cc(=O)[nH]1` (single isomer, unassigned) [Example 81]: the Ki in data set [1] worked out at 1.7 nM; in data set [2], 0.93 nM.

With `CC(c1ccc(C(F)(F)F)cc1F)n1cc(-c2cc(=O)[nH]c(CC3CC3)n2)nn1` (centres unmarked) [Example 14, 2-(cyclopropylmethyl)-6-(1-(1-(2-fluoro-4-(trifluoromethyl)phenyl)ethyl)-1H-1,2,3-triazol-4-yl)pyrimidin-4(3H)-one], the figures for the inhibition constant (Ki) in data set [1] and in data set [2] were 24.9 nM and 20.9 nM, respectively.

`Cc1nc(-c2cn(C(C)c3ccc(C(F)(F)F)c(F)c3F)nn2)cc(=O)[nH]1` (single isomer, unassigned) [Example 21, (R)- or (S)-6-(1-(1-(2,3-difluoro-4-(trifluoromethyl)phenyl)ethyl)-1H-1,2,3-triazol-4-yl)-2-methylpyrimidin-4(3H)-one]: the Ki in data set [1] came out at 3.9 nM; in data set [2] it was 2.6 nM.

Consider `CC/C=C/c1nc(-c2cn(C(C)c3ccc(C(F)(F)F)cc3F)nn2)cc(=O)[nH]1` (centres unmarked) [Example 15, (E)-2-(but-1-enyl)-6-(1-(1-(2-fluoro-4-(trifluoromethyl)phenyl)ethyl)-1H-1,2,3-triazol-4-yl)pyrimidin-4(3H)-one], for which the Ki in data set [1] is 6.5 nM; in data set [2] it was 4.7 nM.

As for `Cc1nc(-c2nnn([C@H](C)c3ccc(C(F)(F)F)cc3Cl)c2C)cc(=O)[nH]1` (mixture of isomers) [Example 44, (R)- and (S)-6-(1-(1-(2-Chloro-4-(trifluoromethyl)phenyl)-ethyl)-5-methyl-1H-1,2,3-triazol-4-yl)-2-methylpyrimidin-4(3H)-one], the inhibition (usually the share of the control response that was lost under treatment) at 3 µM in data set [2] came to 44%.

On to `Cc1nc(-c2nnn3c2CCC[C@]3(C)c2ccc(C(F)(F)F)cc2C)cc(=O)[nH]1` (single isomer, unassigned) [Example 78], for which the Ki in data set [2] was found to be 804 nM.

`CC(c1ccc(C(F)(F)F)cc1F)n1cc(-c2cc(=O)[nH]c(Cc3ccccc3)n2)nn1` (centres unmarked) [Example 12]: the Ki came out at 8.9 nM in data set [1] and 8.4 nM in data set [2].
